# Source: ChEMBL document CHEMBL1201862, “PubChem BioAssay data set” (2004)
# Several values for one entry are separate records, joined by “and”; a condition that tells them apart may be missing. Equal values may be shown once. Activity calls are given as the source filed them.
# Experiments:
# Prothrombin = Prothrombin (Homo sapiens, UniProt P00734); assay: Thrombin 1536 HTS Dose Response Confirmation. [Related pubchem assays: 1046 (Thrombin 1536 HTS; hits were confirmed in this assay)]; assay type: functional
# Coagulation factor XII = target: T1, Coagulation factor XII (Homo sapiens, UniProt P00748); assay: Factor XIIa Dose Response Confirmation from Single Well HTS. [Related pubchem assays (depositor defined):AID701]; assay type: functional
# T1 sequence (P00748 whole entry): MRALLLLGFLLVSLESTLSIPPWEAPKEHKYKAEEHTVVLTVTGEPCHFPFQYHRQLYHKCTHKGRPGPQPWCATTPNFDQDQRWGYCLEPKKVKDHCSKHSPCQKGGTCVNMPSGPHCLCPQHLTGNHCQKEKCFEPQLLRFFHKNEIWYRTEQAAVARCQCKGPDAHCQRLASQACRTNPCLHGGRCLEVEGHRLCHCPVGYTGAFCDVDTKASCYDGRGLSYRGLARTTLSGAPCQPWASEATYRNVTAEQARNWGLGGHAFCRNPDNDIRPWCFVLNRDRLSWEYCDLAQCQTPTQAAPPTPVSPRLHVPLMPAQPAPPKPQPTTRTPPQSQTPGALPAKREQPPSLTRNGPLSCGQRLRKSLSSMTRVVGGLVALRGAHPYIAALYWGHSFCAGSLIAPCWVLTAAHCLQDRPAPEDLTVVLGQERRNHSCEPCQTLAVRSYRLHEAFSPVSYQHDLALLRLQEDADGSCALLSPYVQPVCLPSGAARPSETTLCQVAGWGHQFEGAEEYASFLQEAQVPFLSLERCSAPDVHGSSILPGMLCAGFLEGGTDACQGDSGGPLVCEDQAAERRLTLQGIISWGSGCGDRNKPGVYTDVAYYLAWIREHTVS
# [1] = target: T2, Sphingosine 1-phosphate receptor 4 (Homo sapiens, UniProt O95977); assay: Late-stage fluorescence dose response cell-based assay to identify agonists of the Sphingosine 1-Phosphate Receptor 4 (S1P4): purchased compounds EC50. [Related pubchem assays (depositor defined):AID1509, AID1523, AID1563, AID1686, AID1701, AID1801]; assay type: functional
# T2 sequence (O95977 whole entry): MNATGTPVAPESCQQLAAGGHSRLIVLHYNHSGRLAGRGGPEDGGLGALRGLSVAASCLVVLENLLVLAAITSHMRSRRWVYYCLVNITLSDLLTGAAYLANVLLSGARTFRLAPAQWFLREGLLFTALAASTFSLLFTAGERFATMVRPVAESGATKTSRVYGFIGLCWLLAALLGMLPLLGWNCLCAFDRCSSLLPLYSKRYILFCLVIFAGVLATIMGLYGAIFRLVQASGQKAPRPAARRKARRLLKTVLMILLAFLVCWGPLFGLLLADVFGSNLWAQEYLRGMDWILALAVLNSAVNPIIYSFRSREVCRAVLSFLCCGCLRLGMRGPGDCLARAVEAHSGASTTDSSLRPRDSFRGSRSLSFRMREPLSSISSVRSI
# [2] = cytotoxicity in HEK-293T cells, dose response, cytotoxicity control for TCR NF-kB inhibitor project, luminescence, T-cell screen hits (AID 489026); assay type: functional, cell-based;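 also: cells exposed to compound about 14 hours before the viability readout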
# [3] = Intein inhibitors as potential Tuberculosis drugs, a cytotoxicity screen. [Related pubchem assays (depositor defined):AID2221, AID2223, AID434968, AID435010, AID449749, AID449750, AID489010]; assay type: functional
# [4] = target: T3, Replicative DNA helicase DnaB (Mycobacterium tuberculosis, UniProt P9WMR3); assay: DnaB intein splicing inhibitors, dose response, biochemical, cell-free fluorescence (AID 449749); assay type: functional
# T3 sequence (P9WMR3 whole entry): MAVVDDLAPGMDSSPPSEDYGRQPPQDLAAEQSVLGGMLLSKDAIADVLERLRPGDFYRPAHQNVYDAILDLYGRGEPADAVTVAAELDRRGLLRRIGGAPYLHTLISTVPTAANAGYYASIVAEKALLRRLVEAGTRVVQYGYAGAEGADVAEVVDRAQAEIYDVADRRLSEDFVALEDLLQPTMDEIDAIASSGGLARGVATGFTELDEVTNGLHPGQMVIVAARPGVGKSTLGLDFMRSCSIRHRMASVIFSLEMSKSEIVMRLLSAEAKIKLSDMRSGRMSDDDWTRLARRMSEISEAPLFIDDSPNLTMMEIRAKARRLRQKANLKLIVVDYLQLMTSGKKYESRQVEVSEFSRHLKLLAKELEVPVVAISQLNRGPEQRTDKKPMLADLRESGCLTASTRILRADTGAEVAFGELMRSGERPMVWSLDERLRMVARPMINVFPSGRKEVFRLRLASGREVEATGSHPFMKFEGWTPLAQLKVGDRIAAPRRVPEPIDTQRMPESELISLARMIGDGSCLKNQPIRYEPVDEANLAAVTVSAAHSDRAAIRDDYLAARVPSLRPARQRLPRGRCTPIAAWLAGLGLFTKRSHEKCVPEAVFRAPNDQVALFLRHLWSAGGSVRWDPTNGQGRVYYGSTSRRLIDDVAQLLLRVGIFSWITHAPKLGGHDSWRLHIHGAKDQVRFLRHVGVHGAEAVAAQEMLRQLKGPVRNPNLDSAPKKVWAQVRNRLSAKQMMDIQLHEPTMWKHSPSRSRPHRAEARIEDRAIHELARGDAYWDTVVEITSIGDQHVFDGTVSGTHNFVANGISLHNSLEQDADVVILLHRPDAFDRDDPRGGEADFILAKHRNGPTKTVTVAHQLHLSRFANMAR
# Protein RecA = target: T4, Protein RecA (Mycobacterium tuberculosis, UniProt P9WHJ3); assay: Fluorescence Cell-Free Homogeneous Dose Retest to Identify Inhibitors of RecA-Intein Splicing Activity. [Related pubchem assays (depositor defined):AID2097, AID2223, AID489010, AID492950]; assay type: functional
# T4 sequence (P9WHJ3 whole entry): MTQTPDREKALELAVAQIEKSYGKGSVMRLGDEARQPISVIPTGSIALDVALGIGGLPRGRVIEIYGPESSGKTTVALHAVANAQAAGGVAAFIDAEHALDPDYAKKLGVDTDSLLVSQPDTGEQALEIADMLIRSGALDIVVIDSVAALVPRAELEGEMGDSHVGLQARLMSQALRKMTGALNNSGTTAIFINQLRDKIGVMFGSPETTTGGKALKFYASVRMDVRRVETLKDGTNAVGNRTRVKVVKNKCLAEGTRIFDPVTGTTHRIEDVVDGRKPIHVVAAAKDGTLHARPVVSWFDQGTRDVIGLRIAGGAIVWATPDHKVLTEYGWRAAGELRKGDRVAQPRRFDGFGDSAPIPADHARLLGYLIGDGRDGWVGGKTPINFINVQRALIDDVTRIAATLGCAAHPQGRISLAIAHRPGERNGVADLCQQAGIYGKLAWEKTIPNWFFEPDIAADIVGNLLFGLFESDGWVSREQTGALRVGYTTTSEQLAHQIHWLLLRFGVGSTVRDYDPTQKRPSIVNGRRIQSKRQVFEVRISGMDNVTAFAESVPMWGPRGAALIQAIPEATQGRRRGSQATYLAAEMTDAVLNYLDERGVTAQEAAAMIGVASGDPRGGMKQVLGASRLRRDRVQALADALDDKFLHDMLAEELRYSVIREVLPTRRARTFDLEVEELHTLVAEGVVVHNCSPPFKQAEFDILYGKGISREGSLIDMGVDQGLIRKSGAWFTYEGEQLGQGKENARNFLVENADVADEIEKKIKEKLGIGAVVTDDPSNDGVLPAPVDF
# [5] = target: T5, Type-1 angiotensin II receptor (Homo sapiens, UniProt P30556); assay: AT1 receptor agonists, dose response, selectivity assay for APJ receptor agonist project, cell-based, uHTS hits (AID 488865); assay type: functional;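 also: beta-arrestin recruitment to AT1 measured by enzyme fragment complementation luminescence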
# T5 sequence (P30556 whole entry): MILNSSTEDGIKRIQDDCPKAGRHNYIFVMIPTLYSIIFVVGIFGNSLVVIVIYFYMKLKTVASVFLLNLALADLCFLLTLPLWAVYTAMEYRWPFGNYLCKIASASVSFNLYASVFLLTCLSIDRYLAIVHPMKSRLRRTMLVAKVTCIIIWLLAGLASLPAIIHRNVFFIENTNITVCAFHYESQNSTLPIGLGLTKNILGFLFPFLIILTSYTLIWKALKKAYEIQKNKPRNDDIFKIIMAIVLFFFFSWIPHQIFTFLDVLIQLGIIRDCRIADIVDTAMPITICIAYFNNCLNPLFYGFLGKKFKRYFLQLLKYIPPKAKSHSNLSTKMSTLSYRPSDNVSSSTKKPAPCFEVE
# [6] = Luminescence Cell-Based Dose Retest to Confirm Inhibitors of Cancer Stem Cells. [Related pubchem assays (depositor defined):AID2717, AID2721]; assay type: functional; settings: Homo sapiens
# T-cell = assay: inhibitors of CD8+ T cell–vesicle binding, dose response, mouse 2C CD8+ T cells, flow cytometry (AID 485284); assay type: functional
# [7] = target: Glyceraldehyde-3-phosphate dehydrogenase (Homo sapiens, UniProt P04406)
# Glyceraldehyde-3-phosphate dehydrogenase, sequence (P04406 whole entry): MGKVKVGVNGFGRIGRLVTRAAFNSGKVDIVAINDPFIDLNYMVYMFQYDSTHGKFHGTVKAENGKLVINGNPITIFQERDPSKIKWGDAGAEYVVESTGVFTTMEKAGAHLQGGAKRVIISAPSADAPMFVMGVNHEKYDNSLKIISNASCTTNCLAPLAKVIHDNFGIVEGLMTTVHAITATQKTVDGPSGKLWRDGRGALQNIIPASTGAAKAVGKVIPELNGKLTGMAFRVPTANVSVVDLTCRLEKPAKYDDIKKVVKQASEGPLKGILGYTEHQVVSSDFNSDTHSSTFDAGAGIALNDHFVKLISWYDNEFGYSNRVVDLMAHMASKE
# [8] = target: T6, Alkaline phosphatase, tissue-nonspecific isozyme (Homo sapiens, UniProt P05186); assay: human TNAP enzyme inhibitors, SAR follow-up, biochemical, luminescent, dose response (AID 1056)
# T6 sequence (P05186 whole entry): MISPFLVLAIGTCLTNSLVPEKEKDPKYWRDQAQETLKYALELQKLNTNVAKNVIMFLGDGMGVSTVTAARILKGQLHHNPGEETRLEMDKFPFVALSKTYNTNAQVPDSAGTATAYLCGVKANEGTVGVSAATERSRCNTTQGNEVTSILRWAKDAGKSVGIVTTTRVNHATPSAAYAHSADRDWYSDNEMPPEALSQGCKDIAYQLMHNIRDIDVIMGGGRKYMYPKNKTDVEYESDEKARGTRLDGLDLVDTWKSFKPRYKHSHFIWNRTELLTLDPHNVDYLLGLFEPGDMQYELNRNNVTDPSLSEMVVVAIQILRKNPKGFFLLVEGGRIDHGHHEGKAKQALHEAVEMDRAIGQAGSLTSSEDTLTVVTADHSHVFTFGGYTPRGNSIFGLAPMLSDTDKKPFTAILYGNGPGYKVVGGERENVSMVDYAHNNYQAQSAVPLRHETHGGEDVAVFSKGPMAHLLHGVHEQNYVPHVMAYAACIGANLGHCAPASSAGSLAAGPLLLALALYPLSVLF
# [9] = target: T7, Heat shock factor protein 1 (Mus musculus, UniProt P38532); assay: inhibition of MG132-induced HSE-luciferase signal, confirmation, cell-based, NIH3T3, luminescence, dose retest (AID 2382); assay type: functional;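 also: NIH3T3 fibroblasts with HSF1-driven luciferase reporter stressed by proteasome inhibitor MG132; luminescence from HSF1-driven luciferase expression after 8 hours of MG132 stress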
# T7 sequence (P38532 whole entry): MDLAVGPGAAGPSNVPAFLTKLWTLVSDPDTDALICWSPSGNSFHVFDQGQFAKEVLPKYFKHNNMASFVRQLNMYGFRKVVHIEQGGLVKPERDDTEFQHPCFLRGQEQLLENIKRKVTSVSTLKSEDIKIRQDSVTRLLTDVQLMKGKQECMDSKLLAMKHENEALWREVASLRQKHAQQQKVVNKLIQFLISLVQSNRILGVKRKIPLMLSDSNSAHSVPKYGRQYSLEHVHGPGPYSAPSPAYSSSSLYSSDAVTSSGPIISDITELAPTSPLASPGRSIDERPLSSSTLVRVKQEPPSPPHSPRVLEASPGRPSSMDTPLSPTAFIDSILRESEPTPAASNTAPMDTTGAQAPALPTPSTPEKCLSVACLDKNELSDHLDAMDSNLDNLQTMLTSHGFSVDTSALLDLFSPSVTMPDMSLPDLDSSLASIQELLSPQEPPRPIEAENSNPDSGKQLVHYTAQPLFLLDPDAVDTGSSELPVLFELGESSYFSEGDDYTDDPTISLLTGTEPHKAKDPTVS
# [10] = growth suppression of PTEN-null colon cells, dose response, cell-based, HCT116 PTEN knockout (AID 1047); assay type: functional;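 also: HCT116 colon tumor cells with PTEN knocked out; cells exposed to compound for 60 hours before readout; potency for loss of cell viability measured by luminescence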
# [11] = growth suppression of beta-catenin-knockout colon cells, dose response, cell-based, HCT116, human colon tumor (AID 1045); assay type: functional;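 also: HCT116 colon tumor cells with beta catenin knocked out; cells exposed to compound for 60 hours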
# [12] = target: T2, Sphingosine 1-phosphate receptor 4; assay: Fluorescence dose response cell-based high throughput screening assay for antagonists of the Sphingosine 1-Phosphate Receptor 4 (S1P4). [Related pubchem assays: 1524 (Confirmation in triplicates.), 1510 (Primary screen.)]; assay type: functional
# [13] = target: Sphingosine 1-phosphate receptor 1 (Homo sapiens, UniProt P21453); assay type: functional;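 also: Tango beta-arrestin reporter U2OS cells stimulated with S1P near its EC80; inhibitor potency meaning antagonism of receptor activation by the natural agonist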
# Sphingosine 1-phosphate receptor 1, sequence (P21453 whole entry): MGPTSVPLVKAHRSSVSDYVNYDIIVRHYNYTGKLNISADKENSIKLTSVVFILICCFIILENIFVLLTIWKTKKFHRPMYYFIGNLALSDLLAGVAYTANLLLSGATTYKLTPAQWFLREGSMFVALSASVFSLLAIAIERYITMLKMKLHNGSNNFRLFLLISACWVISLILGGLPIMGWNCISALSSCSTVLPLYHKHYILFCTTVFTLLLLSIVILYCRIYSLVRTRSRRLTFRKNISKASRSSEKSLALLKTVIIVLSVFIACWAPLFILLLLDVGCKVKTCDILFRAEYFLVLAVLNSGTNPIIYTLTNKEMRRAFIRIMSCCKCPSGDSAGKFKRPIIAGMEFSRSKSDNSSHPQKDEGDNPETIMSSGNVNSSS
# [14] = THP-1 cell cytotoxicity, dose response, cytotoxicity control for non-replicating M. tuberculosis project (AID 489025); assay type: functional
# Beta-galactosidase = Beta-galactosidase (Escherichia coli, UniProt Q8VNN2); assay: beta-galactosidase enzyme inhibitors and activators, dose response, artefact control for CCR6 antagonist project, biochemical, E. coli enzyme, set 3 (AID 504712); assay type: functional
# Beta-galactosidase, sequence (Q8VNN2 whole entry): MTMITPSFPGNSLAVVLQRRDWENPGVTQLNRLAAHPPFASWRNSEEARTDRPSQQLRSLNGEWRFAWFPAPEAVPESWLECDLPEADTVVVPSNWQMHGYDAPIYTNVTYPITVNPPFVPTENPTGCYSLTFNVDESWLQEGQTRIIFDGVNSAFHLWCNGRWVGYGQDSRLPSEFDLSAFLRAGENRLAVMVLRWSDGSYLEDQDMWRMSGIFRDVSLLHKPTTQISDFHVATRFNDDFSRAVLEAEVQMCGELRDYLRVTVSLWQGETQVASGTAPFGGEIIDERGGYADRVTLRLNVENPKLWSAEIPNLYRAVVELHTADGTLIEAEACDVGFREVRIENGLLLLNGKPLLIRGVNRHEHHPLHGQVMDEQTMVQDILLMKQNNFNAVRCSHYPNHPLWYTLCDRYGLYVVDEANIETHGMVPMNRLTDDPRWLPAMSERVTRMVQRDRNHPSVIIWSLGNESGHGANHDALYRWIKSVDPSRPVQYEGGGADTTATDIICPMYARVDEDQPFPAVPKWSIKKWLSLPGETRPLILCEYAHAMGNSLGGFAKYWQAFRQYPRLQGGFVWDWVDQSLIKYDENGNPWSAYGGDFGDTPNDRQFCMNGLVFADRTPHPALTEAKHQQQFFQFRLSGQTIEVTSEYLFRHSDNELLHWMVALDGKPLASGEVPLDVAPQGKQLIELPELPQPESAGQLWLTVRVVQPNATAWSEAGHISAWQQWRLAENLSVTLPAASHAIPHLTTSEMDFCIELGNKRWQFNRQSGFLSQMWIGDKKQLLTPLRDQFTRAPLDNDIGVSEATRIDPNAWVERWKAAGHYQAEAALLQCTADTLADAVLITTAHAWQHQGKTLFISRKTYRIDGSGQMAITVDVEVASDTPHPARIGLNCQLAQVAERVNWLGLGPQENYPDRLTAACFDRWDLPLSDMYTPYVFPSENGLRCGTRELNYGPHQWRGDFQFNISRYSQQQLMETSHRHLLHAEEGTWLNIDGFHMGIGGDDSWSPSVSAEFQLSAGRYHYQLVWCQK
# [15] = Vero E6 cell cytotoxicity, dose response, cytotoxicity control for non-replicating M. tuberculosis project, secondary assay (AID 492998); assay type: functional, VeroE6; settings: Vero C1008
# [16] = target: DNA damage-inducible transcript 3 protein (Mus musculus, UniProt P35639); assay type: functional, Cricetulus griseus
# DNA damage-inducible transcript 3 protein, sequence (P35639 whole entry): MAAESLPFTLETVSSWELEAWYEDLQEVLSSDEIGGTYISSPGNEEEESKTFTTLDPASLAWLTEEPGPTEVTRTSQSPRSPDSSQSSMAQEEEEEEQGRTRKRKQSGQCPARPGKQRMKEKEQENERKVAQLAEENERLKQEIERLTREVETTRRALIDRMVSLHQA
# X-box-binding protein 1 = X-box-binding protein 1 (Homo sapiens, UniProt P17861); assay type: functional, Cricetulus griseus;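 also: confirmatory dose-response counter-screen serving a CHOP assay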
# X-box-binding protein 1, sequence (P17861 whole entry): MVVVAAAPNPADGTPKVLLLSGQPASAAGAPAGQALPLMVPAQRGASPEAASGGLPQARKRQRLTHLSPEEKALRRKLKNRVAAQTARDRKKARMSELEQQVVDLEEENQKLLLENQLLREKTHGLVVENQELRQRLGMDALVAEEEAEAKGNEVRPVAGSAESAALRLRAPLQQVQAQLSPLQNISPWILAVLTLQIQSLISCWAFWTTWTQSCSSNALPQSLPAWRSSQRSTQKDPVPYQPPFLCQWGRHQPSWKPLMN
# cells = assay type: functional
# HEK293 = assay: inhibitors of LMP1-driven NF-kB reporter, dose response, cell-based, HEK293, luciferase, cherry-pick (AID 588343); assay type: functional; settings: Homo sapiens
compound,measurement,setting,value
COc1cccc(-c2nc3ccccc3c(=O)o2)c1,IC50,Prothrombin,6.94 µM (active)
same,IC50,Coagulation factor XII,> 50 µM (inconclusive)
Cc1ccc(OCC(=O)Nc2cc(Cl)cc(Cl)c2)c([N+](=O)[O-])n1,EC50,[1],3.6 µM (active) and > 50 µM (inactive)
CC(C)(C)c1csc(Sc2ccc([N+](=O)[O-])cn2)n1,IC50,[2],> 80 µM (inactive)
same,CC50,[3],> 40 µM (active)
same,AC50,[4],2.54 µM (active)
same,EC50,Protein RecA,1.75 µM (active)
CCOc1cc2[nH]c(=S)n(CC3CCCN3CC)c(=O)c2cc1OCC (centres undefined),EC50,[5],> 100 µM (inactive)
CC1(C)Cc2c(C#N)c(NC3CCCCC3)nc(-c3ccco3)c2CO1,AC50,[6],5.72 µM (active)
same,EC50,T-cell,6.98 µM (active)
O=C(O)c1ccc(-c2ccccc2)[nH]1,IC50,[7],> 100 µM (not active)
same,IC50,[8],> 100 µM (inactive)
O=C1c2cccc3c([N+](=O)[O-])ccc(c23)C(=O)N1c1ccccn1,EC50,[9],12.8 µM (active)
same,EC50,[10],4.17 µM (active)
same,EC50,[11],2.38 µM (active)
same,IC50,[12],0.75 µM (active)
same,IC50,[13],2.29 µM (active)
same,CC50,[14],6.16 µM (active)
same,IC50,Beta-galactosidase,> 66.6 µM (inactive)
same,CC50,[15],12.3 µM (active)
same,Absolute IC50 (CHOP),[16],10 µM
same,Absolute IC50 (XBP1),X-box-binding protein 1,10 µM
same,IC50,cells,20.3 µM (active)
same,AC50,HEK293,5.7 µM (active)
